These are literature values, as cited in patent US20170216439A1, “OTIC FORMULATIONS FOR THE TREATMENT OF CERUMINOSIS” (Otonomy, Inc., priority 2014, published 2017).

For series [1] the following is noted: for efficacy against tinnitus: in vivo.
A further series concerns bacterial lesions. As to conditions: wild-type C57BL/6 and mutant flake mice.

As for `CCN(CC)CC(=O)Nc1c(C)cccc1C` [Lidocaine], the “reduces or eliminates the noise associated with tinnitus, share of sufferers” value in series [1] (administered by IV) is reported as 60-80%.
Take `Fc1ccc([C@@H]2CCNC[C@H]2COc2ccc3c(c2)OCO3)cc1` [paroxetine]: the efficacy against tinnitus entry in series [1] is “demonstrated efficacy”.
Regarding `CN[C@H]1CC[C@@H](c2ccc(Cl)c(Cl)c2)c2ccccc21` [sertraline], in series [1], the efficacy against tinnitus result is listed as “demonstrated efficacy”.
With `CCCCCC/C=C\CCCCCCCC(=O)O` [palmitoleic acid], the “inhibitory against S. aureus” value with S. aureus is recorded as “inhibitory”. Also, the “inhibitory against S. pyogenes” value with S. pyogenes is “inhibitory”.
For `CCCCCCCC/C=C\CCCCCCCC(=O)O` [oleic acid], the “inhibitory against S. aureus” value in the series with S. aureus was “inhibitory”. Besides, the “inhibitory against S. pyogenes” value with S. pyogenes is given as “inhibitory”.
Turning to `CCCCCC/C=C\CCCCCCCC(=O)O` [palmitoleate], the “size of bacterial lesions” value with bacterial lesions was “decrease the size of bacterial lesions”.
For `CNCCC=C1c2ccccc2CCc2ccccc21` [nortriptyline], in series [1], the efficacy against tinnitus result is recorded as “demonstrated efficacy”.
